Measured values: patent US20140187625A1, “RODENTICIDAL COMPOUND, COMPOSITION INCLUDING SAME AND USE FOR COMBATING RODENT PESTS” (priority 2011, published 2014)

Each molecule was assayed against T1, activity with respect to vitamin K (vitamin K epoxide substrate), microsomal liver fractions from sensitive rats (Rattus norvegicus, UniProt Q6TEK4) (assay: Inhibition of vitamin K epoxide reduction (activity with respect to vitamin K) in rat liver microsomes, IC50). Conditions: not given.
T1 construct: with 0.5 to 1 mg of microsomal liver fractions from sensitive rats; from tissue; host or cells: rat liver microsomes (sensitive rats)
T1 sequence (Q6TEK4 1-161): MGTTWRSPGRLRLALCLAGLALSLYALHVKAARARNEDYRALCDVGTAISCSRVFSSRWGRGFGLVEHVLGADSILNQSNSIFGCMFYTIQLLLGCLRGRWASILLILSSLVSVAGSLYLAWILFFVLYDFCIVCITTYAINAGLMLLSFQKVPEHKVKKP
Format: biochemical
Description: The operating protocol is the following. Incubation is carried out in a 200 mM Hepes buffer (pH 7.4) containing 150 mM KCl in the presence of a reducing agent, dithiothreitol (1 mM): • with 0.5 to 1 mg of microsomal liver fractions from sensitive rats, and the reaction substrate, • with […] of vitamin K epoxide in a final volume of 1 ml.
The mixture is incubated for 30 minutes at 37° C. and the reaction is stopped by addition of 4 ml of a mixture of isopropanol/hexane (1:1).
The reaction mixture is then centrifuged for 10 minutes at 3,000 revolutions per minute.
The organic phase is collected and then evaporated to dryness under nitrogen.
The dry residue is immediately taken up in 200 μl of isopropanol.
The vitamin K is then analyzed. The products are separated by reverse chromatography on a C8 column using a mobile phase composed of methanol and acetic acid under isocratic conditions (1 ml/min) at 45° C. Detection of the product is carried out by MS/MS with an APCI source in positive mode.
The identification criteria for vitamin K are the retention time and the production of fragment 187 from the initial ion 451.
The IC50 values are evaluated by non-linear to linear regression from the equation of non-competitive inhibition:
v=(vmax/(l+(I/Ki)))*(S/(Km+S))
where v represents the initial rate, I the concentration of anticoagulant, Km the Michaelis-Menten constant, S the concentration of substrate (mM), Vmax the maximum rate of reaction and Ki the inhibition constant.

SMILES	IC50 [nM]
CCCCCCCCCCc1c(O)c2ccccc2oc1=O [III]	60
CCCCCCc1c(O)c2ccccc2oc1=O [VIII, reference compound]	> 200
CCCCCCCCCCCCCCCCCCc1c(O)c2ccccc2oc1=O [VII]	60
CCCCCCCCCCCCCCCCc1c(O)c2ccccc2oc1=O [VI]	40
CCCCCCCCCCCCCCc1c(O)c2ccccc2oc1=O [V]	40
CCCCCCCCc1c(O)c2ccccc2oc1=O [II]	150
CCCCCCCCCCCCc1c(O)c2ccccc2oc1=O [IV]	50

Same assay, conditions: microsomal liver fractions from sensitive rats, vitamin K epoxide substrate, 30 minutes at 37° C., pH 7.4, 1 mM dithiothreitol; read-out: IC50

SMILES	IC50 [nM]
CCCCCCCCCCCCCCCCCCCCc1c(O)c2ccccc2oc1=O [IX, reference compound]	> 500
